Experimental data taken from ChEMBL document CHEMBL1909538, “Iodine-catalyzed conjugate addition of indoles onto en-1,4-dione: a novel synthesis of 3-(1-(1H-indol-3-yl)-2-oxo-2-phenylethyl)indolin-2-ones as antibacterial and antifungal agents” (2011).
Converted amounts (≈) assume the structure as drawn.

Legend:
Aspergillus flavus [1] = assay: Antifungal activity against Aspergillus flavus at 150 ug after 48 hrs by agar well diffusion method; details: read-out: DIZ
Candida albicans [2] = assay: Antifungal activity against Candida albicans MTCC 227 at 100 ug after 48 hrs by agar well diffusion method; assay type: functional; details: MTCC 227, 48 h, read-out: DIZ
Saccharomyces cerevisiae [3] = assay: Antifungal activity against Saccharomyces cerevisiae MTCC 36 at 150 ug after 48 hrs by agar well diffusion method; assay type: functional; details: MTCC 36, 48 h, read-out: DIZ
Staphylococcus aureus = assay: Antimicrobial activity against Staphylococcus aureus MTCC 96 by broth dilution method; assay type: functional
Bacillus subtilis = assay: Antimicrobial activity against Bacillus subtilis MTCC 441 by broth dilution method; assay type: functional
Aspergillus flavus [4] = assay: Antifungal activity against Aspergillus flavus at 100 ug after 48 hrs by agar well diffusion method; details: read-out: DIZ
Pseudomonas aeruginosa = assay: Antimicrobial activity against Pseudomonas aeruginosa MTCC 741 by broth dilution method; assay type: functional
Diutina rugosa [5] = assay: Antifungal activity against Candida rugosa at 100 ug after 48 hrs by agar well diffusion method; assay type: functional; details: read-out: DIZ
Diutina rugosa [6] = assay: Antifungal activity against Candida rugosa at 150 ug after 48 hrs by agar well diffusion method; assay type: functional; details: read-out: DIZ
Saccharomyces cerevisiae [7] = assay: Antifungal activity against Saccharomyces cerevisiae MTCC 36 at 100 ug after 48 hrs by agar well diffusion method; assay type: functional; details: MTCC 36, 48 h, read-out: DIZ
Escherichia coli = assay: Antimicrobial activity against Escherichia coli MTCC 443 by broth dilution method; assay type: functional
Candida albicans [8] = assay: Antifungal activity against Candida albicans MTCC 227 at 150 ug after 48 hrs by agar well diffusion method; assay type: functional; details: MTCC 227, 48 h, read-out: DIZ
Klebsiella pneumoniae = assay: Antimicrobial activity against Klebsiella pneumoniae MTCC 618 by broth dilution method; assay type: functional
[9] = test system: Staphylococcus epidermidis; assay: Antimicrobial activity against Staphylococcus epidermidis by broth dilution method; assay type: functional
Aspergillus flavus [10] = assay: Antifungal activity against Aspergillus flavus at 50 ug after 48 hrs by agar well diffusion method; details: read-out: DIZ
Saccharomyces cerevisiae [11] = assay: Antifungal activity against Saccharomyces cerevisiae MTCC 36 at 50 ug after 48 hrs by agar well diffusion method; assay type: functional; details: MTCC 36, 48 h, read-out: DIZ
Candida albicans [12] = assay: Antifungal activity against Candida albicans MTCC 227 at 50 ug after 48 hrs by agar well diffusion method; assay type: functional; details: MTCC 227, 48 h, read-out: DIZ
Diutina rugosa [13] = assay: Antifungal activity against Candida rugosa at 50 ug after 48 hrs by agar well diffusion method; assay type: functional; details: read-out: DIZ

Row | SMILES | zone of inhibition at 150 µg/disc (Aspergillus flavus [1]) [mm] | zone of inhibition at 100 µg/disc (Candida albicans [2]) [mm] | zone of inhibition at 150 µg/disc (Saccharomyces cerevisiae [3]) [mm] | MIC (Staphylococcus aureus) [µg/mL] | MIC (Bacillus subtilis) [µg/mL] | zone of inhibition at 100 µg/disc (Aspergillus flavus [4]) [mm] | MIC (Pseudomonas aeruginosa) [µg/mL] | zone of inhibition at 100 µg/disc (Diutina rugosa [5]) [mm] | zone of inhibition at 150 µg/disc (Diutina rugosa [6]) [mm] | zone of inhibition at 100 µg/disc (Saccharomyces cerevisiae [7]) [mm] | MIC (Escherichia coli) [µg/mL] | zone of inhibition at 150 µg/disc (Candida albicans [8]) [mm] | MIC (Klebsiella pneumoniae) [µg/mL] | MIC [9] [µg/mL] | zone of inhibition at 50 µg/disc (Aspergillus flavus [10]) [mm] | zone of inhibition at 50 µg/disc (Saccharomyces cerevisiae [11]) [mm] | zone of inhibition at 50 µg/disc (Candida albicans [12]) [mm] | zone of inhibition at 50 µg/disc (Diutina rugosa [13]) [mm]
1 | O=C1Nc2ccccc2C1C(C(=O)c1ccccc1)c1c[nH]c2ccccc12 (stereo unspecified) | 0 | 0 | 0 | 75 (≈ 205 µM) | 75 (≈ 205 µM) | 0 | 9.38 (≈ 25.6 µM) | 11 | 16 | 0 | 150 (≈ 409 µM) | 0 | 150 (≈ 409 µM) | 150 (≈ 409 µM) | – | – | – | –
2 | N#Cc1ccc2[nH]cc(C(C(=O)c3ccccc3)C3C(=O)Nc4ccccc43)c2c1 (stereo unspecified) | 0 | 0 | 0 | 150 (≈ 383 µM) | 150 (≈ 383 µM) | 0 | 150 (≈ 383 µM) | 8 | 11 | 0 | 150 (≈ 383 µM) | 0 | 150 (≈ 383 µM) | 150 (≈ 383 µM) | – | – | – | –
3 | Cc1[nH]c2ccc([N+](=O)[O-])cc2c1C(C(=O)c1ccccc1)C1C(=O)Nc2ccccc21 (stereo unspecified) | 0 | 0 | 0 | 150 (≈ 353 µM) | 150 (≈ 353 µM) | 0 | 150 (≈ 353 µM) | 0 | 0 | 0 | 150 (≈ 353 µM) | 0 | 150 (≈ 353 µM) | 150 (≈ 353 µM) | – | – | – | –
4 | Cn1cc(C(C(=O)c2ccccc2)C2C(=O)Nc3ccccc32)c2ccccc21 (stereo unspecified) | 0 | 0 | 0 | 150 (≈ 394 µM) | 150 (≈ 394 µM) | 0 | 18.8 (≈ 49.3 µM) | 10 | 16 | 0 | 150 (≈ 394 µM) | 0 | 150 (≈ 394 µM) | 150 (≈ 394 µM) | – | – | – | –
5 | O=C1Nc2ccccc2C1C(C(=O)c1ccccc1)c1c[nH]c2ccc(Br)cc12 (stereo unspecified) | 0 | 0 | 0 | 150 (≈ 337 µM) | 150 (≈ 337 µM) | 0 | 18.8 (≈ 42.1 µM) | 0 | 15 | 0 | 150 (≈ 337 µM) | 0 | 150 (≈ 337 µM) | 150 (≈ 337 µM) | – | – | – | –
6 | O=C1Nc2ccccc2C1C(C(=O)c1ccccc1)c1c[nH]c2ccc([N+](=O)[O-])cc12 (stereo unspecified) | 0 | 0 | 0 | 150 (≈ 365 µM) | 75 (≈ 182 µM) | 0 | 9.38 (≈ 22.8 µM) | 0 | 0 | 0 | 150 (≈ 365 µM) | 0 | 150 (≈ 365 µM) | 150 (≈ 365 µM) | – | – | – | –
7 | COC(=O)c1ccc2[nH]cc(C(C(=O)c3ccccc3)C3C(=O)Nc4ccccc43)c2c1 (stereo unspecified) | 0 | 0 | 0 | 75 (≈ 177 µM) | 150 (≈ 353 µM) | 0 | 18.8 (≈ 44.2 µM) | 10 | 15 | 0 | 150 (≈ 353 µM) | 0 | 150 (≈ 353 µM) | 150 (≈ 353 µM) | – | – | – | –
8 | Cc1[nH]c2ccccc2c1C(C(=O)c1ccccc1)C1C(=O)Nc2ccccc21 (stereo unspecified) | 0 | 0 | 0 | 37.5 (≈ 98.6 µM) | 150 (≈ 394 µM) | 0 | 18.8 (≈ 49.3 µM) | 9 | 13 | 0 | 150 (≈ 394 µM) | 0 | 150 (≈ 394 µM) | 150 (≈ 394 µM) | – | – | – | –
9 | O=C1Nc2ccccc2C1C(C(=O)c1ccccc1)c1c[nH]c2ccc(Cl)cc12 (stereo unspecified) | 0 | 0 | 0 | 18.8 (≈ 46.8 µM) | 150 (≈ 374 µM) | 0 | 9.38 (≈ 23.4 µM) | 13 | 17 | 0 | 150 (≈ 374 µM) | 0 | 150 (≈ 374 µM) | 75 (≈ 187 µM) | – | – | – | –
10 | O=C1Nc2ccccc2C1C(C(=O)c1ccccc1)c1c(-c2ccccc2)[nH]c2ccccc12 (stereo unspecified) | 0 | 0 | 0 | 75 (≈ 169 µM) | 150 (≈ 339 µM) | 0 | 9.38 (≈ 21.2 µM) | 12 | 17 | 0 | 150 (≈ 339 µM) | 0 | 150 (≈ 339 µM) | 75 (≈ 169 µM) | – | – | – | –
11 | C[C@@H]1[C@H](O)[C@@H](C)/C=C/C=C/C=C/C=C/C=C/C=C/C=C/[C@H](O[C@@H]2O[C@H](C)[C@@H](O)[C@H](N)[C@@H]2O)C[C@@H]2O[C@](O)(C[C@@H](O)C[C@@H](O)[C@H](O)CC[C@@H](O)C[C@@H](O)CC(=O)O[C@H]1C)C[C@H](O)[C@H]2C(=O)O [AMPHOTERICIN B] | – | – | – | – | – | – | – | – | – | – | – | – | – | – | 25 | 22 | 23.5 | 21
12 | CC1(C)S[C@@H]2[C@H](NC(=O)Cc3ccccc3)C(=O)N2[C@H]1C(=O)O [PENICILLIN G] | – | – | – | 1.56 (≈ 4.67 µM) | 1.56 (≈ 4.67 µM) | – | 12.5 (≈ 37.4 µM) | – | – | – | 12.5 (≈ 37.4 µM) | – | 6.25 (≈ 18.7 µM) | 3.12 (≈ 9.35 µM) | – | – | – | –
13 | CN[C@@H]1[C@H](O[C@H]2[C@H](O[C@H]3[C@H](O)[C@@H](O)[C@H](N=C(N)N)[C@@H](O)[C@@H]3N=C(N)N)O[C@@H](C)[C@]2(O)C=O)O[C@@H](CO)[C@H](O)[C@H]1O [STREPTOMYCIN] | – | – | – | 6.25 (≈ 10.7 µM) | 6.25 (≈ 10.7 µM) | – | 1.56 (≈ 2.69 µM) | – | – | – | 6.25 (≈ 10.7 µM) | – | 3.12 (≈ 5.37 µM) | 3.12 (≈ 5.37 µM) | – | – | – | –
